SMILES strings stand for the structures. Where a SMILES comes first, the peptide text is derived from it.

The values below come from US20120202883A1, “EFFECTS OF IDH1 AND IDH2 MUTATIONS ON THE CELLULAR METABOLOME” (DUKE UNIVERSITY, priority 2011, published 2012).

Assay [1] relates to complex V (ATP synthase) of the mitochondrial electron transport chain. The conditions noted are these: chick neurons; reference 27; cited from earlier work.
Assay [2] deals with HOG cells. The assay is described as follows: Metabolomic profiling (LC-MS, GC-MS) of HOG cell lysates after 2HG treatment or IDH1 shRNA expression. Format: cell-based, human. As to conditions: for number of biochemicals with altered levels: 72 hours, HOG cells vs vector, p<0.05. From the text:
Cell lines. HOG cells were derived from a human WHO grade III anaplastic oligodendroglioma (28) and previously found not to contain exon 4 IDH1 or exon 4 IDH2 mutations (8). The HOG cell line was kindly donated by Dr. A. T. Campagnoni at UCLA. To express IDH1 and IDH2 transgenes in cells, IDH1 and IDH2 cDNAs, or cDNAs mutagenized to IDH1-R132H or IDH2-R172K, were cloned into pLenti6.2/V5 (Invitrogen, Carlsbad, Calif.). Viruses were created using these constructs in 293FT cells and these were used to transduce cells derived from the same parental pool of HOG cells for 24 h. Cells derived from the same clone were reasoned to have homogenous IDH transgene expression levels and metabolic profiles compared to pools of cells or transiently transfected cells, facilitating the identification of metabolites that have altered levels in different clones. Virus was replaced by fresh media for 48 hours and then stable clones were selected from single-cell dilutions in 5 μg/ml blasticidin for 3 weeks. Stable HOG cell lines containing IDH1 shRNA or control were constructed by transfecting HOG cells with pSuperRetro vector (OligoEngine, Seattle, Wash.) containing IDH1-specific hairpin or a scrambled sequence (5′-cat aac gag cgg aag aac g-3′). The IDH1-specific hairpin was created using the primers 5′-gat ccc cGG GAA GTT CTG GTG TCA Tat tca aga gaT ATG ACA CCA GAA CTT CCC ttt ttg gaa a-3′ and 5′-agc ttt tcc aaa aaG GGA AGT TCT GGT GTC ATA tct ctt gaa TAT GAC ACC AGA ACT TCC Cgg g-3′, with capital letters representing bases homologous to IDH1 sequence. Clones were selected with 500 μg/ml G418 for 3 weeks and expanded after single cell dilution. Percent knockdown was determined by ImageJ (v1.43, available at http://rsbweb.nih.gov/ij/, developed by Wayne Rasband, National Institutes of Health, Bethesda, Md.) analysis of the intensity of immunoblot anti-IDH1 bands, normalized to the intensity of anti-GAPDH internal control bands (FIG. S4A). The same clone of vector, IDH1-WT, and IDH1-R132H HOG cells were used in all experiments.
2HG synthesis. 2HG was synthesized by treatment of D-glutamate (Sigma-Aldrich, St. Louis, Mo.) with nitrous acid to form a lactone, which was then hydrolyzed with NaOH solution to form 2-D-hydroxyl glutarate. Purity was 93%. Powder was resuspended in PBS and filtered through a 0.22 μm filter using sterile technique for treatment of cells.
Metabolomic analysis. Cell line treatment: Cells were grown under respective experimental conditions in IMDM media (Gibco, Invitrogen, Carlsbad, Calif.) supplemented with 10% FBS. For the experiment in FIG. 2, cells were grown in a media mix that also contained either 10% PBS or 10% of a 300 mM or 75 mM 2HG solution in PBS for a final 30 mM or 7.5 mM 2HG. Cells were seeded into flasks three days before harvesting. To harvest cells, media was removed, monolayers were washed with PBS, and 0.05% trypsin/EDTA was added. Cells were incubated for 20 min at 37° C. or until cells detached. Two volumes of media were added to the Trypsin/cell mix and suspended by gentle pipetting and triteration. Cells were counted, and 10^7 cells per sample were spun down at 1000 rpm×3 min in a polystyrene tube. Cells were washed twice with PBS and then snap-frozen on dry ice and stored at −80° C. until analysis.
Metabolite analysis: Metabolomic profiling analysis of all samples was carried out in collaboration with Metabolon (Durham, N.C.) as described previously (29-31), as follows:
Sample Preparation: The sample preparation process was carried out using the automated MicroLabSTAR® system (Hamilton Company, Reno, Nev.). Recovery standards were added prior to the first step in the extraction process for QC purposes. Sample preparation was conducted using a proprietary series of organic and aqueous extractions to remove the protein fraction while allowing maximum recovery of small molecules. The resulting extract was divided into two fractions; one for analysis by LC and one for analysis by GC. […]

Assay [3] concerns HOG cells. The assay is described as follows: Targeted LC-MS/MS of NAA and NAAG in HOG cells incubated with NAA or NAAG media. The assay is classed as cell-based, human. On the procedure: Targeted mass LC-MS/MS. Simultaneous quantification of NAA and NAAG in cell culture media, cell lysates, and tissues was done by liquid chromatography-electrospray ionization-tandem mass spectrometry (LC-ESI-MS/MS).
Sample preparation. Media above the cells and cell lysates: To 20 μL of sample 40 μL of ice-cold methanol was added, mixture vigorously agitated (FastPrep, Qbiogene, Carlsbad, Calif. 20 s, speed 6), left at −20° C. for 15 min, agitated again (same cond.), centrifuged at 16,000 g for 5 min, and 50 μL of supernatant dried by vacuum centrifuge (50° C., 1 hr, SpeedVac, Thermo Scientific, West Palm Beach, Fla.). The dry residue was dissolved by 50 μL of mobile phase A (see below) and 10 μL injected into LC-MS/MS system. Tissue samples: To […] sample of wet tissue, 300 μL of deionized water and one 4 mm ceramic bead was added in 2-mL polypropylene tube and vigorously agitated (FastPrep, 20 s, speed 4, 2 cycles). A 50 μL aliquot of the homogenate was pipetted out for total protein measurement (for tissue mass normalization purpose) and 500 μL methanol added to the original vial which was again agitated (FastPrep, same conditions), left at −20° C. for 15 min, centrifuged at 16,000 g for 5 min, and 650 μL of supernatant dried by vacuum centrifuge (SpeedVac, 50° C., 1.5 hr). The dry residue was dissolved by 50 μL of mobile phase A (see below) and 10 μL injected into LC-MS/MS system.
LC-MS/MS analysis. Equipment: Agilent 1200 series HPLC (Santa Clara, Calif.) and Sciex/Applied Biosystems API 3200 QTrap (Carlsbad, Calif.). Mobile phase A: water, 3% methanol; mobile phase B: acetonitrile/methanol, 1/1. Analytical column: Kinetex C18, 150×4.6 mm, 2.6 μm, and SafeGuard C18 4×3 mm guard-column from Phenomenex (Torrance, Calif.). Column temperature: 45° C. Elution gradient at 1 mL/min flow rate: 0-1 min 0% B, 1-2 min 0-80% B, 2-3.5 min 80% B, 3.5-4 min 80-0% B, 4-10 min 0% B. Injection volume: 10 μL. The Q1/Q3 (m/z) transitions monitored in positive electrospray ionization mode: 176/158 (NAA, quantification), 176/134 (NAA, confirmation), 305/148 (NAAG, quantification), 305/130 (NAAG, confirmation).
Calibration. A set of calibrator samples in corresponding matrix was prepared for calibration by adding appropriate amounts of pure NAA and NAAG at the following concentration levels: 0, 0.01, 0.05, 0.25, 1.25, and 6.25 μg/mL. These samples were analyzed alongside the experimental samples and accuracy acceptance criteria was 85% for each but the lowest level (0.01 μg/mL, 80%). The limit of quantification (at 80% accuracy criterion) was determined to be 10 ng/ml for both NAA and NAAG. Samples in which NAA or NAAG was not detected were assigned to have a value of 0 NAA or NAAG (FIG. 5A,B). Statistically significant differences that we reported (FIG. 5A,B) were still significant when 10 ng/ml was assigned for samples in which NAA or NAAG was not detected. Quadratic least squares regression curve fit was employed to account for slight but predictable nonlinearity (ESI of highly polar analytes) with 1/x weighing factor. The addition of methanol to the sample matrix is shared with a recently reported NAAG analysis method (32). Otherwise this procedure is, to the best of our knowledge, novel.
Univariate statistics. Welch's t-test was used to determine whether mean levels of a biochemical in one experimental group were different from mean levels in another group. […]

Setting [4] is: 30 mM 2HG-treated HOG cells vs vector, p<0.001.

For the compound `O=C(O)CC[C@@H](O)C(=O)O` [2HG, 2-D-hydroxyl glutarate], the “effect on complex V (ATP synthase)” value in assay [1] is given as “impair”. Besides, the “number of biochemicals with altered levels” value in the assay on HOG cells [2] (7.5 mM 2HG) is reported as 117. Moreover, the “2HG elevation (intracellular)” value in the assay on HOG cells [2] (30 mM 2HG group, HOG lysate vs vector, p<0.001) is listed as 54 fold. In addition, the “number of biochemicals with altered levels” value in the assay on HOG cells [2] (30 mM 2HG) came out at 130. Moreover, the “reduced and oxidized glutathione” value in the assay on HOG cells [2] (30 mM 2HG-treated HOG cells vs vector) is reported as “not significantly affected”. In the assay on HOG cells [2] (30 mM 2HG-treated HOG cells vs vector, non-significant, p=0.10), the α-ketoglutarate higher is 1.3 fold. Moreover, the “N-acetyl-aspartate (NAA) lower” value in the assay on HOG cells [2] (30 mM 2HG-treated HOG cells vs vector, not significantly changed, p=0.38) was 1.1 fold. Moreover, in the assay on HOG cells [2] (setting [4]), the GPC higher amounted to 3.0 fold, the NAAG lower is reported as 1.8 fold and the choline phosphate lower is 100 fold. In the assay with HOG cells [2] (30 mM 2HG-treated HOG cells vs vector, p=0.002), this compound displayed a glutamate increased of 1.4 fold.

Consider `CC(=O)N[C@@H](CC(=O)O)C(=O)N[C@@H](CCC(=O)O)C(=O)O` [NAAG, N-acetyl-aspartyl-glutamate] (Ac-Asp-Glu-OH), for which the “NAA levels in NAAG-treated cells” value in the assay on HOG cells [3] (10 μM NAAG, all groups (vector, IDH1-WT, IDH1-R132H)) is “modestly increased”. In the assay on HOG cells [3] (HOG cells treated with 10 μM NAAG, 48 hours), the “intracellular NAAG levels compared to the no treatment group” value is on record as “increased”.

Regarding `CC(=O)N[C@@H](CC(=O)O)C(=O)O` [NAA, N-acetyl-aspartate], in the assay on HOG cells [3] (HOG IDH1-R132H cells, 100 μM NAA media, 48 hours), the “level of NAA in IDH1-R132H expressing cells” value is listed as “increased the level of NAA in IDH1-R132H expressing cells to the normal level of NAA in the vector control”. Moreover, in the assay on HOG cells [3] (HOG cells in media containing 100 μM NAA, 48 hours), the “intracellular NAA levels compared to controls” value is “higher”. In the assay on HOG cells [3] (after NAA treatment (100 μM NAA media, 48 hours)), the “NAAG in HOG cells expressing IDH1-R132H” value is on record as “did not increase”.
